Assay [1] concerns LPS signaling (TLR4) in WT C57BL/6J peritoneal macrophages. It is filed as cell-based, mouse. Particulars: 2 h.
The test system of assay [2] is GRP-induced angiogenesis. Particulars: 0.5 μM; in vitro and in vivo; cited from earlier work.
The subject of assay [3] is LPS signaling (TLR4) in WT C57BL/6J peritoneal macrophages. Nature of the assay: LPS signaling in peritoneal macrophages pre-treated with GRP inhibitor or GRPR antagonist. Type of assay: cell-based, mouse. Particulars: 0.5 μM pre-treatment 1 h, then LPS (10 ng/ml) 2 h.
Assay [4] concerns radiation-induced pneumonitis/fibrosis. Particulars: therapeutic administration; cited from earlier work.
The test system of assay [5] is pulmonary neuroendocrine cells (PNECs). Nature of the assay: IHC staining for pulmonary neuroendocrine cells (PGP 9.5, GRP) in influenza-infected mice. It is filed as in vivo, WT C57BL/6J mice. The text has this:
FIG. 4. IHC staining for pulmonary neuroendocrine cells (PNECs), PGP 9.5, and GRP in influenza-infected mice. Lung sections from FIG. 3 were stained in a mock-infected, c PR8+vehicle, and e PR8+NSC77427 for neural/neuroendocrine-specific PGP 9.5, or in b mock-infected, d PR8+vehicle, and f PR8+NSC77427 for GRP, a neuroendocrine granule marker. Scale bars shown are 50 μm for a-d, and 10 μm for e and f. Arrows are positioned in each panel within a treatment group to indicate groups of positive cells, except in b, where the arrow indicates GRP− cells adjacent to the PGP 9.5+ cells shown in a. g Graphic image analysis of PGP 9.5+ and GRP+ cells after IHC staining. Slides were blinded by an observer with no knowledge of experimental groups. PCP9.5+ and GRP+ cells were counted throughout each complete lung lobe crosssection for each animal, with validation by x40 micrographs of each slide. Total tissue area was determined by using ImageI thresholding analysis (methyl green counterstain) because PNECs are mainly observed in alveolar ducts and small bronchioles. *p=0.009; **p=0.001
Immunohistochemical (IHC) staining for the mature GRP peptide (a PNEC granule marker) and PGP 9.5 (the neural/NE cytoplasmic isoform of ubiquitin-C-terminal hydrolase-1) was carried out as described previously. In brief, formalin-fixed, paraffin-embedded lung sections were treated for 10 min with Triton X-100 (0.3% in phosphate-buffered saline (PBS)), then normal serum blocking. Diluted primary antibodies were added to sections overnight at 4° C., followed by washing in PBS and incubation for 2 h at 4° C. with 1:200 dilution of biotinylated secondary antibodies (Vector, Burlingame, Calif., USA). After blocking in 3% H2O2 in methanol, Vector ABC Elite was applied to slides for 30 min. Slides were developed by using diaminobenzidine and H2O2, and then counterstained in 2% aqueous methyl green. All slides were blinded for semi-quantitative analysis. Results are expressed as mean numbers of cells positive for PGP 9.5 or GRP per mm^2 lung tissue section. […]

For assay [6], the system named is influenza-induced cytokine induction. Put plainly: Lung cytokine gene expression by qRT-PCR in PR8-infected mice. It is filed as in vivo, WT C57BL/6J mice. On the set-up: lung mRNA expression of IFN-β: dose or concentration left out as unconfirmed. For orientation: In qPCR the cycle at which signal appears reflects the starting amount.
[7] abbreviates: 20 μM/mouse i.v. daily day 2 to 6.

Ends that are not written are not given here.

In the case of “GRP: exogenous gastrin-releasing peptide added to macrophages with LPS (VPLPAGGGTVLTKMYPRGNHWAVGHLM; ends and bridges not checked; UniProt P07492 24-50, looked up)”, in assay [1] (GRP 1-100 nM plus LPS 0.1 and 1 ng/ml), the “MyD88-dependent and TRIF-dependent cytokine gene expression with suboptimal LPS” value is given as “synergistic induction”. In addition, the “synergistic effect with LPS at higher doses of LPS” value in assay [1] (GRP 1-100 nM plus LPS up to 10 ng/ml) is “largely lost”. For the same compound, the “cytokine gene expression, GRP alone” value in assay [1] (GRP 1-100 nM, no LPS) is given as “did not induce cytokine gene expression”.
Turning to `Nc1nc(Cl)cc(NCCO)n1` [NSC77427, 2-[(2-amino-6-chloropyrimidin-4-yl)amino]ethanol], the GRP-induced angiogenesis result in assay [2] is “blocked GRP-induced angiogenesis”. For the same compound, the “LPS-induced MyD88-dependent (TNF-α) or TRIF-dependent (IFN-β, RANTES) gene expression” value in assay [3] is on record as “did not block”. Further, the lung injury entry in assay [4] is listed as “mitigated”. The “fewer PGP+ PNECs vs. PR8-infected untreated” value in assay [5] (NSC77427 days 2 to 6, IHC image analysis, p=0.009) was ~50%. In addition, the “GRP immunostaining in the extracellular matrix” value in assay [5] (PR8-infected, NSC77427 days 2 to 6) is “visibly less”. The “decrease in GRP+ PNECs” value in assay [5] (PR8-infected, NSC77427 days 2 to 6, IHC image analysis, p=0.001) is ~70%. In assay [6] (setting [7]), the “lung mRNA expression of IL-1β” value is “blunted”, the “lung mRNA expression of RANTES” value is “blunted” and the “lung mRNA expression of TNF-α” value is on record as “blunted”. The “lung mRNA expression of IFN-β” value in assay [6] (i.v. daily day 2 to 6) is listed as “blunted”.

Values taken from patent US20220002399A1, “METHODS FOR DECREASING INFLUENZA-INDUCED LETHALITY USING GASTRIN-RELEASING PEPTIDE (GRP) INHIBITORS OR GASTRIN-RELEASING PEPTIDE RECEPTOR (GRPR) ANTAGONISTS” (University of Maryland, Baltimore, priority 2018, published 2022).
